# Results from PubChem BioAssay (NCI).
#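 Grown in 96-well plates, cells were treated for 48 hours with each compound at five concentrations. Insufficient inhibition: endpoint recorded as highest concentration tested. TGI: total growth inhibition.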
# Experiments:
# Experiment in all cases: growth of human tumour cells (NCI), 48 h
# HCT-116 colon = test system: HCT-116 colon
# HOP-62 NSCLC = test system: HOP-62 NSCLC
# MCF7 breast = test system: MCF7 breast
# RXF 393 renal = test system: RXF 393 renal
# COLO 205 colon = test system: COLO 205 colon
# CCRF-CEM leukemia = test system: CCRF-CEM leukemia
# SK-MEL-28 melanoma = test system: SK-MEL-28 melanoma
# HT29 colon = test system: HT29 colon
# HOP-92 NSCLC = test system: HOP-92 NSCLC
# K-562 leukemia = test system: K-562 leukemia
# HCT-15 colon = test system: HCT-15 colon
# MDA-MB-231 breast = test system: MDA-MB-231 breast
# KM12 colon = test system: KM12 colon
# SNB-19 CNS = test system: SNB-19 CNS
# PC-3 prostate = test system: PC-3 prostate
# SF-268 CNS = test system: SF-268 CNS
# M14 melanoma = test system: M14 melanoma
# NCI-H522 lung = test system: NCI-H522 lung
# MDA-MB-435 = test system: MDA-MB-435
# 786-0 renal = test system: 786-0 renal
# HCC-2998 colon = test system: HCC-2998 colon
# NCI-H23 lung = test system: NCI-H23 lung
# OVCAR-3 ovarian = test system: OVCAR-3 ovarian
# SNB-75 CNS = test system: SNB-75 CNS
# TK-10 renal = test system: TK-10 renal
# UACC-62 melanoma = test system: UACC-62 melanoma
# OVCAR-4 ovarian = test system: OVCAR-4 ovarian
# SW-620 colon = test system: SW-620 colon
# MOLT-4 leukemia = test system: MOLT-4 leukemia
# SR leukemia = test system: SR leukemia
# NCI-H226 lung = test system: NCI-H226 lung
# SF-539 CNS = test system: SF-539 CNS
# NCI/ADR-RES ovarian = test system: NCI/ADR-RES ovarian
# LOX IMVI melanoma = test system: LOX IMVI melanoma
# EKVX NSCLC = test system: EKVX NSCLC
# HS 578T breast = test system: HS 578T breast
# SK-MEL-5 melanoma = test system: SK-MEL-5 melanoma
# NCI-H460 lung = test system: NCI-H460 lung
# RPMI-8226 leukemia = test system: RPMI-8226 leukemia
# UO-31 renal = test system: UO-31 renal
# MALME-3M melanoma = test system: MALME-3M melanoma
# CAKI-1 renal = test system: CAKI-1 renal
# T-47D breast = test system: T-47D breast
# MDA-N = test system: MDA-N
# OVCAR-8 ovarian = test system: OVCAR-8 ovarian
# U251 CNS = test system: U251 CNS
# SK-OV-3 ovarian = test system: SK-OV-3 ovarian
# HL-60(TB) leukemia = test system: HL-60(TB) leukemia
# ACHN renal = test system: ACHN renal
# A549 NSCLC = test system: A549 NSCLC
# SF-295 CNS = test system: SF-295 CNS
# IGROV1 ovarian = test system: IGROV1 ovarian
# SK-MEL-2 melanoma = test system: SK-MEL-2 melanoma
# SN12C renal = test system: SN12C renal
# UACC-257 melanoma = test system: UACC-257 melanoma
# BT-549 breast = test system: BT-549 breast
# DU-145 prostate = test system: DU-145 prostate
# A498 renal = test system: A498 renal
# OVCAR-5 ovarian = test system: OVCAR-5 ovarian
smiles,measurement,setting,value
Clc1ccc(-c2nc3ccc(Cl)cc3[nH]2)cc1,TGI,HCT-116 colon,53.3 µM
same,TGI,HOP-62 NSCLC,> 100 µM
same,TGI,MCF7 breast,> 100 µM
same,TGI,RXF 393 renal,> 100 µM
same,TGI,COLO 205 colon,34.9 µM
same,TGI,CCRF-CEM leukemia,> 100 µM
same,TGI,SK-MEL-28 melanoma,> 100 µM
same,TGI,HT29 colon,> 100 µM
same,TGI,HOP-92 NSCLC,75.1 µM
same,TGI,K-562 leukemia,> 100 µM
same,TGI,HCT-15 colon,> 100 µM
same,TGI,MDA-MB-231 breast,> 100 µM
same,TGI,KM12 colon,98.1 µM
same,TGI,SNB-19 CNS,> 100 µM
same,TGI,PC-3 prostate,77.5 µM
same,TGI,SF-268 CNS,> 100 µM
same,TGI,M14 melanoma,> 100 µM
same,TGI,NCI-H522 lung,80.1 µM
same,TGI,MDA-MB-435,84.5 µM
same,TGI,786-0 renal,> 100 µM
same,TGI,HCC-2998 colon,89.1 µM
same,TGI,NCI-H23 lung,90.3 µM
same,TGI,OVCAR-3 ovarian,96.5 µM
same,TGI,SNB-75 CNS,> 100 µM
same,TGI,TK-10 renal,> 100 µM
same,TGI,UACC-62 melanoma,> 100 µM
same,TGI,OVCAR-4 ovarian,> 100 µM
same,TGI,SW-620 colon,> 100 µM
same,TGI,MOLT-4 leukemia,> 100 µM
same,TGI,SR leukemia,> 100 µM
same,TGI,NCI-H226 lung,> 100 µM
same,TGI,SF-539 CNS,> 100 µM
same,TGI,NCI/ADR-RES ovarian,56.1 µM
same,TGI,LOX IMVI melanoma,69.5 µM
same,TGI,EKVX NSCLC,> 100 µM
same,TGI,HS 578T breast,> 100 µM
same,TGI,SK-MEL-5 melanoma,> 100 µM
same,TGI,NCI-H460 lung,98.4 µM
same,TGI,RPMI-8226 leukemia,79.1 µM
same,TGI,UO-31 renal,79.3 µM
same,TGI,MALME-3M melanoma,> 100 µM
same,TGI,CAKI-1 renal,> 100 µM
same,TGI,T-47D breast,> 100 µM
same,TGI,MDA-N,85.2 µM
same,TGI,OVCAR-8 ovarian,> 100 µM
same,TGI,U251 CNS,> 100 µM
same,TGI,SK-OV-3 ovarian,> 100 µM
same,TGI,HL-60(TB) leukemia,> 100 µM
same,TGI,ACHN renal,> 100 µM
same,TGI,A549 NSCLC,> 100 µM
same,TGI,SF-295 CNS,74.9 µM
same,TGI,IGROV1 ovarian,> 100 µM
same,TGI,SK-MEL-2 melanoma,67.4 µM
same,TGI,SN12C renal,86.6 µM
same,TGI,UACC-257 melanoma,> 100 µM
same,TGI,BT-549 breast,> 100 µM
same,TGI,DU-145 prostate,> 100 µM
CN1CCN(CCCNN)CC1,TGI,HCT-116 colon,> 100 µM
same,TGI,HOP-62 NSCLC,> 100 µM
same,TGI,MCF7 breast,> 100 µM
same,TGI,RXF 393 renal,> 100 µM
same,TGI,COLO 205 colon,> 100 µM
same,TGI,SK-MEL-28 melanoma,> 100 µM
same,TGI,HT29 colon,> 100 µM
same,TGI,HOP-92 NSCLC,> 100 µM
same,TGI,K-562 leukemia,37.5 µM
same,TGI,HCT-15 colon,> 100 µM
same,TGI,MDA-MB-231 breast,> 100 µM
same,TGI,KM12 colon,> 100 µM
same,TGI,SNB-19 CNS,> 100 µM
same,TGI,PC-3 prostate,> 100 µM
same,TGI,SF-268 CNS,> 100 µM
same,TGI,M14 melanoma,> 100 µM
same,TGI,NCI-H522 lung,> 100 µM
same,TGI,MDA-MB-435,> 100 µM
same,TGI,786-0 renal,> 100 µM
same,TGI,HCC-2998 colon,> 100 µM
same,TGI,NCI-H23 lung,> 100 µM
same,TGI,OVCAR-3 ovarian,> 100 µM
same,TGI,SNB-75 CNS,> 100 µM
same,TGI,TK-10 renal,> 100 µM
same,TGI,UACC-62 melanoma,> 100 µM
same,TGI,OVCAR-4 ovarian,> 100 µM
same,TGI,SW-620 colon,> 100 µM
same,TGI,MOLT-4 leukemia,1.44 µM
same,TGI,SR leukemia,> 100 µM
same,TGI,NCI-H226 lung,> 100 µM
same,TGI,SF-539 CNS,> 100 µM
same,TGI,NCI/ADR-RES ovarian,> 100 µM
same,TGI,LOX IMVI melanoma,> 100 µM
same,TGI,EKVX NSCLC,> 100 µM
same,TGI,HS 578T breast,> 100 µM
same,TGI,SK-MEL-5 melanoma,> 100 µM
same,TGI,NCI-H460 lung,> 100 µM
same,TGI,RPMI-8226 leukemia,> 100 µM
same,TGI,UO-31 renal,> 100 µM
same,TGI,CAKI-1 renal,> 100 µM
same,TGI,T-47D breast,> 100 µM
same,TGI,MDA-N,> 100 µM
same,TGI,OVCAR-8 ovarian,> 100 µM
same,TGI,U251 CNS,> 100 µM
same,TGI,SK-OV-3 ovarian,> 100 µM
same,TGI,HL-60(TB) leukemia,> 100 µM
same,TGI,ACHN renal,> 100 µM
same,TGI,A549 NSCLC,> 100 µM
same,TGI,A498 renal,> 100 µM
same,TGI,SF-295 CNS,> 100 µM
same,TGI,IGROV1 ovarian,> 100 µM
same,TGI,SK-MEL-2 melanoma,> 100 µM
same,TGI,OVCAR-5 ovarian,> 100 µM
same,TGI,SN12C renal,> 100 µM
same,TGI,UACC-257 melanoma,> 100 µM
same,TGI,BT-549 breast,> 100 µM
same,TGI,DU-145 prostate,> 100 µM
